Literature values as cited in patent US20250131989A1, “LABORATORY CALIBRATION SYSTEM OF MATERIALS FOR USAGE IN SIMULATIONS AND FORECAST OF DISSOLUTION, DISINTEGRATION, DIFFUSION, COMPRESSION, DEFORMATION AND OTHER RELATED MATERIAL PROPERTIES AND CORRESPONDING METHOD THEREOF” (CINCAP GMBH, priority 2021, published 2025).

Assays:
[1] = key 7 (solubility vs. pH data point); example JSON database record, producer CINCAP
[2] = example JSON database record, producer CINCAP

## Cn1c(=O)c2[nH]cnc2n(C)c1=O [Theophilline]
[1]
  solubility: “solubility”:[{“key”:7, “value”:7.36}],
[2]
  diffusivity: “diffusivity”:6.16e−10,
